“Also recorded” adds a separate entry of the source.
Legend:
HEK293 cells = experiment: Assessment of stimulation toxicity (apoptosis, necrosis, PI uptake); assay type: cell-based
Source text: Assessment of Stimulation Toxicity: The purpose was to use MM to interact with cell signaling. However, several previous studies by the group have explored the same or similar molecules for inducing cell permeabilization and death (Santos et al., 2022; Alaya-Orozco et al., 2020; Gunasekera et al., 2020). These studies used minutes-long light doses rather than the millisecond-scale doses employed in this work. Nevertheless, assessing the effects of MM stimulation on cell viability remains imperative.
Potentially toxic effects of MM stimulation on cells were assessed in several ways. First, qualitative analysis of stimulated cells can be used to assess toxicity. For these experiments, HEK293 cells were treated with MM 1 and prepared as was typical for stimulation experiments.
Second, once a suitable window of stimulation power had been identified, the effects of stimulation on cells were compared to healthy cells and several positive controls representing mechanisms of cell death. For these experiments, cells were loaded with Fluo-4, CellMask cell membrane labeling dye, and MM 1 and were imaged in the presence of cell-impermeant viability dye propidium iodide (PI; 1 μg mL^−1). The onset of apoptotic cell death in imaged colonies was confirmed by the observation of pyknosis (cell shrinkage) (Hajnoczky et al., 2003), the uptake of small amounts of PI, and the enhanced fluorescence of Fluo-4 in the colony (FIG. 8A).
Finally, to account for potential aftereffects of stimulation, isolated HEK293 colonies were grew in a grid pattern by photolithographically patterning polydimethylsiloxane onto Ibidi imaging dishes. Colonies were seeded with 25,000 cells cm^−2. Two days after seeding, cells were treated with MM 1 and Fluo-4 using typical protocols (see Example 6), and 10 selected cells were stimulated in selected colonies. After 24 h, these colonies were imaged again in the presence of 1 μg mL^−1 PI to observe any effects of MM stimulation on growth, cell stress, or viability.

C2C12 myotubes = experiment: C2C12 myotube contraction (image subtraction); assay type: cell-based, mouse; conditions: 400-nm light 1.5 s, image subtraction
Method: FIG. 35—Flow chart for the image subtraction process. First, the background is subtracted from the traces to account for drift during the course of the experiment (top row). After this, the traces are zeroed at the point of stimulation, and the area is calculated from the point of stimulation until the end of the experiment to yield the contraction magnitude. (bottom row).
FIGS. 40A-40D—MMs induce contraction in C2C12 myotubes, a) Confocal microscopy images of Fluo-4 and b) image subtraction of brightfield images to highlight calcium release and contractile motion in three stimulated myotubes (indicated by the red arrows) immediately before stimulation (t=0) for 1.5 s with 400-nm light, as well as 10 s and 120 s after stimulation. Scale bar=30 μm. c) Magnitude of contraction of MM 1 compared to DMSO, MM 2, MM 3, and cells treated with 10 μM U-73122. d) Mechanism of skeletal muscle cell contraction.
This method yielded images where the pixel intensity corresponds to movement over the course of the experiment (FIG. 40C), allowing us to easily visualize and quantify contraction.

C2C12 myoblasts = experiment: ROS generation (CellROX green) in C2C12 myoblasts; assay type: cell-based, mouse; conditions: MM 1 + light
Method: Additionally, to further confirm that the cellular calcium release is not the result of a photodynamic effect caused by reactive oxygen species (ROS) generation, ROS generation was measured from each MM using the ROS sensitive dye CellROX green. CellROX fluoresces when oxidized by ROS in living cells and can be used to measure general oxidative stress in cells due to ROS generation. […] To confirm that the ROS generated by MM 1 was not causing intracellular calcium release, cells were treated with a combination of thiourea (TU, 50 mM) and [COMPOUND LEFT OUT] (SA, 1.25 mM) to scavenge the ROS that were produced. […] If ROS generation by MM 1 was the cause of calcium release, then less calcium release would be expected with treatment of ROS scavengers.

[1] = system: primary rat cardiomyocytes; experiment: Spiking, beating and contraction of primary cardiomyocytes after MM stimulation; assay type: cell-based

SMILES	Cell toxicity after typical stimulation (HEK293 cells; MM 1 8 μM, 3.2×10^2 W cm^−2 for 250 ms)	Cell toxicity at reduced light dose (HEK293 cells; MM 1, 3.2×10^2 W cm^−2 for 1 s, 30 min)	Cell toxicity at high light dose (HEK293 cells; MM 1, 6.4×10^2 W cm^−2 for 4 s)	PI uptake of stimulated colonies 24 h after stimulation (HEK293 cells; MM 1, 10 cells stimulated per colony, 1 μg mL^−1 PI)	Necrotic cell death under UV/DAPI-filter LED (HEK293 cells; MM 1, 395/25 nm, 166 mW cm^−2, 5 min)	Myotube contraction (C2C12 myotubes)	ROS generation (C2C12 myoblasts; CellROX green)	ROS generation with scavenger combination (C2C12 myoblasts; with thiourea-containing scavenger combination (1× and 0.2×))	Contraction / beating of cardiomyocytes ([1]; 400 nm, 250 ms, 5.1×10^2 W cm^−2)	Firing rate of cardiomyocytes ([1]; MM 1 + light in presence of U-73 10 μM, P<0.0001)	Spiking activity of cardiomyocytes ([1]; MM 1 + light, absence of extracellular calcium)	Firing rate of cardiomyocytes ([1]; MM 1 + light, calcium-containing medium) [spikes min^−1 cell^−1]
CC1Cc2ccc3ccccc3c2C1=C1c2ccccc2Sc2cc(NCCN(C)C)ccc21 (stereo not shown) [MM 1]	cells recovered from stimulation and showed no signs of apoptosis or necrosis	strong calcium responses from cells without observable toxicity; also recorded: the calcium signal has returned to homeostatic levels, and the stimulated cell and surrounding cells display no apparent damage	membrane blebbing and calcium accumulation over a 30 min period, indicating cell death; also recorded: membrane blebbing and runaway calcium accumulation; also recorded: the calcium signal has not returned to homeostasis, and membrane blebbing is apparent	indistinguishable from untreated colonies	Necrotic cell death was observed	strong contraction in C2C12 myotubes	generated more ROS than the DMSO negative control but less ROS than positive controls	decrease in ROS generation	local contraction in the stimulated cell; also recorded: periodic beating in the stimulated cell and surrounding cell	~ 0.8 spikes min^−1 cell^−1	did not exhibit any spiking activity	5.1
CC1Cc2cc(NCCN(C)C)c3ccccc3c2C1=C1c2ccccc2-c2ccccc21 (stereo not shown) [MM 3]	–	–	–	–	–	Strong cellular contraction did not occur	–	–	–	–	–	–
